In US20260158023A1, “APOMORPHINE FOR TREATING OR IMPROVING POST-TRAUMATIC STRESS DISORDER” (priority 2024, published 2026):

What was measured:
[1] = tested on: one-time persistent stress post-traumatic stress model; assay: stimulus identification fear conditioning experiment in one-time persistent stress model; assay type: in vivo, mice; conditions: for CS-freezing: one week after one-time persistent stress; for fear response to safety stimuli: one-time persistent stress model
Description: (§1) C57BL/6 mice were stressed by restricting movement for 2 hours (restraint stress), and one week later, two sounds were simultaneously applied: one with sound-only (safety stimuli) and the other with sound paired with electrical stimulation (fear stimuli). The next day, generalization, the freezing level to the safety stimulus (CS-), which is one of the indicators of post-traumatic stress disorder, was measured through fear responses to the two sounds (stimulus identification fear conditioning experiment).
(§2) In order to strengthen the fear response to safety stimuli, a one-time persistent stress was introduced to apply stronger stress. The one-time persistent stress consists of the existing 2-hour restraint stress, 10-minute forced swim test, and 5-minute ether anesthesia.
We observed the fear response in a stimulus identification fear conditioning experiment when apomorphine (1 ug/kg, 3 ug/kg) was administered one week after a one-time persistent stress, which is a more powerful post-traumatic stress model.
In order to compare the effect of apomorphine with that of the existing treatment, paroxetine, a stimulus identification fear conditioning experiment was conducted after stress was applied under the same conditions.

[2] = tested on: normal mice (drd4 WT); assay: stimulus identification fear conditioning experiment in one-time persistent stress model, normal mice (drd4 WT); assay type: in vivo; conditions: as in Example 2.3
[3] = tested on: mice lacking drd4 receptors (drd4 KO); assay: stimulus identification fear conditioning experiment in one-time persistent stress model, mice lacking drd4 receptors (drd4 KO); assay type: in vivo; conditions: as in Example 2.3
[4] = tested on: one-time persistent stress post-traumatic stress model; assay: elevated plus maze test in one-time persistent stress model; assay type: in vivo, mice; conditions: after apomorphine administration
[5] = tested on: restraint stress post-traumatic stress model (C57BL/6 mice); assay: stimulus identification fear conditioning experiment in restraint stress model of post-traumatic stress disorder; assay type: in vivo; conditions: administered 30 minutes before the fear test
Description: as §1
To confirm the effect of apomorphine on the post-traumatic stress model according to concentration, apomorphine of different concentrations was administered 30 minutes before the fear test.

[6] = tested on: one-time persistent stress post-traumatic stress model; assay: open field test in one-time persistent stress model; assay type: in vivo, mice; conditions: after apomorphine administration
From the text: as §2
The level of anxiety symptoms can be determined through the time spent in the center in the open field test.

| SMILES | CS-freezing ([1]; 1 ug/kg) | CS-freezing ([1]; 3 ug/kg) | fear response compared to vehicle administration [2] | fear response between apomorphine administration and vehicle administration [3] | time spent in the open arm in the elevated plus maze test [4] | CS-freezing (freezing level to the safety stimulus) ([5]; 1 ug/kg) | CS-freezing (freezing level to the safety stimulus) ([5]; 3 ug/kg) | mean distance in the open field test (overall walking function) [6] | time spent in the center in the open field test [6] | fear response to safety stimuli ([1]; 5 ug/kg) | fear response to safety stimuli ([1]; all concentrations: 150 ug/kg, 300 ug/kg and 500 ug/kg) |
| --- | --- | --- | --- | --- | --- | --- | --- | --- | --- | --- | --- |
| CN1CCc2cccc3c2[C@H]1Cc1ccc(O)c(O)c1-3 [apomorphine, Apomorphine] | decreased | did not change | decreased | no difference | significantly increased | decreased | did not change | no difference | significantly increased | – | – |
| Fc1ccc([C@@H]2CCNC[C@H]2COc2ccc3c(c2)OCO3)cc1 [paroxetine] | – | – | – | – | – | – | – | – | – | no significant difference | reduced |
